The values below come from US12605374B2, “Methods for drug screening and compositions useful for the inhibition of cell proliferation and/or cell survival” (The Brigham and Women's Hospital, Inc., priority 2019, dated 2026).

Test [1] concerns the target T1, recombinant human Topoisomerase I (Homo sapiens, UniProt P11387).
T1 construct: purchased TopoGEN, Inc. TG2005H
T1 sequence (P11387 1-765): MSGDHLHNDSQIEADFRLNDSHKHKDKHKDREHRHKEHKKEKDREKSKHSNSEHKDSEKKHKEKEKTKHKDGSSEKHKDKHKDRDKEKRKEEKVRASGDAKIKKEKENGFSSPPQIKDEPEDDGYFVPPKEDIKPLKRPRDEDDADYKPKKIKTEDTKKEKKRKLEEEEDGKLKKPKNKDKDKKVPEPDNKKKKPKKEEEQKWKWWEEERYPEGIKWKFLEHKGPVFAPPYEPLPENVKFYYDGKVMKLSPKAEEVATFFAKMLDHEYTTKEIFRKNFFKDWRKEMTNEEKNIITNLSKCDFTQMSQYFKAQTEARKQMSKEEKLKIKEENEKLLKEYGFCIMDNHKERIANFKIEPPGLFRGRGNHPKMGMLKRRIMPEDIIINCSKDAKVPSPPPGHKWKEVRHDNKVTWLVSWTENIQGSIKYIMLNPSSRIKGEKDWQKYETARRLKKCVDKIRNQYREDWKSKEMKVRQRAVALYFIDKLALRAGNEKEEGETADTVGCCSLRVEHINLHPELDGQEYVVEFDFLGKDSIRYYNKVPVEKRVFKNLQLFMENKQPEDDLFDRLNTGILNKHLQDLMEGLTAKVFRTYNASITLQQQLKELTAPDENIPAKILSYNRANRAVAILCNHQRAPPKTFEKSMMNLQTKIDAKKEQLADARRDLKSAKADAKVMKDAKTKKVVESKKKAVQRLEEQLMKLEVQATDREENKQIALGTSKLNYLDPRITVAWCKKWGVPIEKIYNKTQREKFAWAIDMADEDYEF
Briefly: Topoisomerase I and DNA binding gel electrophoresis assay. It counts as biochemical. The following applies: concentrations up to 100 mM (so in the source), versus DMSO. As for the experimental part: FIG. 12: Topoisomerase I and DNA binding assay for DA5. The effect of DA5 on Topoisomerase-mediated DNA unwinding is measured through a gel electrophoresis assay (see Methods).
0.5 ug of pHOT-1 supercoiled DNA (TopoGEN, Inc. TG2030-2) was combined with 2× Topoisomerase I assay buffer (50 mM Tris-HCL (ph7.9), 1 mM EDTA, 1 mM DTT, 20% (v/v) glycerol, 50 mM NaCl), nuclease free water and either DMSO vehicle control, m-AMSA positive control (100-1000 uM; TopoGEN, Inc. […] TG2005H) was added to treatments corresponding to lanes 3-12 with 2 ul of dilution buffer (5 mM Tris-HCL (pH 7.9), 1 mM EDTA, 1 mM DTT, 50% (v/v) glycerol, 500 mM NaCl) added to control treatments lacking enzyme (lanes 2, 13 and 14). Reactions were mixed and incubated at 37° C. for 30 minutes. Reactions were terminated with the addition of 20 ul nuclease free water and 50 ul of 1-butanol (water-saturated) followed by vortex and centrifugation at 13,000 rpm for 1 minute. The lower aqueous phase was removed and added to 50 ul chloroform/isoamyl alcohol (24/1) and 50 ul of 2×STEB buffer (40% (w/v) sucrose, 100 mM Tris-HCL (pH 8), 1 mM EDTA, 0.5 mg/ml bromophenol blue) followed by mixing and centrifugation at 13,000 rpm for 1 minute. […] The gel was stained with ethidium bromide for 15 minutes followed by de-staining in distilled water for 10 minutes. Gels were exposed and images acquired using the iBrightFL1000 gel documentation system (Invitrogen).

The next test concerns zebrafish embryos. The test is described as follows: Respiration rate analysis (Seahorse XF24 oxygen consumption). It counts as in vivo. The following applies: embryos from 5 hpf, versus DMSO control. As for the experimental part:
Analysis of embryonic respiration was performed using a Seahorse XF24 analyzer (Agilent). Embryos at 5 hours post fertilization were arrayed in E3 media at 3 per well in a 24-well standard Seahorse plate using an isolating mesh (as in Stackley et al^72). Each plate contained four replicates of each indicated compound of interest, as well as 4 control wells receiving the equivalent DMSO as contained in the indicated compound solution, and 4 wells with no embryos present to act as a baseline for oxygen content of the media. The sample baseline was read for 5 cycles (3 minute mix, 2 minute wait, 5 minute measure), then compounds were introduced in a single 40-cycle injection phase (3 minute mix, 2 minute wait, 5 minute measure). Measurement data were exported using Seahorse software (Agilent) and averaged over 3 experimental days.

For the molecule `CC[C@@]1(O)C(=O)OCc2c1cc1n(c2=O)Cc2cc3ccccc3nc2-1` [Camptothecin, reference compound], the “effect on Topoisomerase-mediated DNA unwinding (gel electrophoresis)” value in test [1] is recorded as “dose-dependent effect on the amount of circular DNA present”.

With `CC[C@@H]1/C=C/C=C/C[C@H](C)[C@H](O)[C@](C)(O)C(=O)[C@H](C)[C@@H](O)[C@H](C)C(=O)[C@H](C)[C@@H](O)[C@H](C)/C=C/C(=O)O[C@H]2[C@@H](C)[C@@H](CC1)O[C@@]1(CC[C@@H](C)[C@@H](C[C@H](C)O)O1)[C@@H]2C` [oligomycin A, reference compound], in the test on zebrafish embryos, the “respiration rate (oxygen consumption rate)” value was “exponential reduction in respiration rate stabilizing at a baseline rate”.
